Experiment [1] has as its system ERK phosphorylation in DLD-1 cells. Nature of the experiment: In-cell Western blot assay for ERK phosphorylation in DLD-1 cells. The format is cell-based. Conditions: Homo sapiens, p-ERK signal corrected using DMSO and BI-3406, four-parameter fit. As to the method:
Efficacy Example 1: In-cell Western Blot Assay for ERK Phosphorylation in DLD-1 Cells
DLD-1 cells (ATCC, CCL-221) were thawed and cultured in a culture medium containing RPMI1640 (Gibco, A10491-01), 10% fetal bovine serum (FBS) (Transgene, FS201-02) and 1% antibiotic P/S (Gibco, 15140-122) for 3 days until the cell viability was good. The cells were inoculated into a 384-well plate and incubated at 37° C. with 5% CO2 overnight. A test compound, a positive control compound, and a negative control were added. The compound was at concentrations of 10000 nM to 1.52 nM (3-fold dilution) and […], for a total of 10 concentrations. The mixture was well mixed and incubated at 37° C. with 5% CO2. The cells were washed twice with PBS (Solarbio, P1010), and then a blocking buffer was added. After 1 h of blocking at room temperature, a primary antibody mixture (phospho-p44/42 MAPK (T202/Y204) Rabbit mAb (CST, […]), GAPDH (D4C6R) Mouse mAb) (CST, 97166S) was added, followed by overnight incubation at 4° C. The cells were washed 3 times with PBST (PBS containing 0.05% Tween-20 (Solarbio, T8220)), and a secondary antibody mixture (goat anti rabbit 800CW (LI-COR, 926-32211), goat anti mouse 680RD (LI-COR, 926-68070)) was added, followed by incubation at room temperature in the dark. The 384-well plate was reversed and centrifuged at 1000 rpm for 1 min, and read on an Odyssey CLx fluorescence imaging system (LI-COR) to obtain fluorescence signal values, which were corrected using DMSO and BI-3406.
[formula] • H=Ave (DMSO) • L=Ave (BI-3406) • SD (H)=STDEV (DMSO) • SD (L)=STDEV (BI-3406)
The IC50 values of the compounds were calculated using a four-parameter fitting algorithm, specifically as follows:
[formula] • X: Log of cpd concentration • Y: Ave (relative pERK) • Top and Bottom: Plateaus in same units as Y • log IC50: same log units as X • HillSlope: Slope factor or Hill slope.

Experiment [2] has as its target T1, SOS1/KRAS G12C protein binding (Homo sapiens, UniProt Q07889).
T1 construct: His-SOS1 (aa 564-1049) protein; purchased Pharmaron Beijing Co., Ltd. 20200717 (His-SOS1); 20200707 (KRAS G12C)
T1 sequence (Q07889 564-1049): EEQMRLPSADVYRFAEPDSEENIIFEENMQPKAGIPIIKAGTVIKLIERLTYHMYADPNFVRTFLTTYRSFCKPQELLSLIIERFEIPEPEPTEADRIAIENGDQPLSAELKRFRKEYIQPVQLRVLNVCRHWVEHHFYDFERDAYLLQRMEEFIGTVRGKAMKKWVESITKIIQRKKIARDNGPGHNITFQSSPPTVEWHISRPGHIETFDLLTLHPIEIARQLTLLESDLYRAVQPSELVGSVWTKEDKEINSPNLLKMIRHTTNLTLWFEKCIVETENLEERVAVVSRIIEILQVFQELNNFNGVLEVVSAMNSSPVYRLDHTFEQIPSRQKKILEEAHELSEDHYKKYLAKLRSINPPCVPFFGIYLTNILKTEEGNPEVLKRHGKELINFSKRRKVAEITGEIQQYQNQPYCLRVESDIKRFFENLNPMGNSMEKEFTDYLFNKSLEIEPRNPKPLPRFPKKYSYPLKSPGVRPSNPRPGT
Nature of the experiment: Inhibition of SOS1/KRAS G12C protein binding (665 nm/615 nm ratio). The settings on record: 15 nM KRAS G12C (aa 1-169), 2.5 nM His-SOS1 (aa 564-1049); nonlinear regression. As to the method:
Efficacy Example 2: Evaluation of Inhibition of SOS1/KRAS G12C Protein Binding
A test compound was dissolved in 100% DMSO to give a solution at a concentration of 10 mM. 10 μL of the solution was taken and 3-fold diluted with 100% DMSO to prepare test compound solutions with concentrations of 10000 nM to […], for a total of 11 concentrations. The compound solutions at different concentrations were then transferred to a 384-well plate at 0.1 μL/well using a sonic droplet device Echo (Labcyte), and 2 replicate wells were set for each concentration.
A 15 nM KRAS G12C (aa 1-169) protein (Pharmaron Beijing Co., Ltd., 20200707) was transferred to the 384-well reaction plate at 5 μL/well using the sonic droplet device Echo (Labcyte), and then the reaction plate was centrifuged in a centrifuge (Eppendorf, 5810R) at 1000 rpm/min for 1 min.
A 2.5 nM His-SOS1 (aa 564-1049) protein (Pharmaron Beijing Co., Ltd., 20200717) was transferred to the 384-well reaction plate at 5 μL/well using the sonic droplet device Echo (Labcyte), and then the reaction plate was centrifuged in a centrifuge (Eppendorf, 5810R) at 1000 rpm/min for 1 min and incubated at 25° C. for 15 min.
A mixed solution of Antibody 1 (MAb Anti-6his-Tb cryptate Gold, Cisbio, 61HI2TLA) and Antibody 2 (MAb Anti-GST-XL665, Cisbio, 61GSTXLA) was transferred to the 384-well reaction plate at 10 μL/well using the sonic droplet device Echo (Labcyte), and then the reaction plate was centrifuged in a centrifuge (Eppendorf, 5810R) at 1000 rpm/min for 1 min and incubated at 25° C. for 120 min.
The 665 nm/615 nm optical density ratio was read using an Envision multifunctional microplate reader (Perkin Elmer, Envision 2104).
Analysis of Original Data:
The IC50 values of the compounds were fitted by a nonlinear regression equation of Graphpad Prism 8. The results are shown in Table 2: • Negative control: DMSO
The IC50 (half maximal inhibitory concentration) values of the compounds were calculated using the following non-linear fitting equation:
[formula] • X: Log of cpd concentration • Y: 665 nm/615 nm ratio

As for `CCOc1c(=O)n(C2(C)CC2)cc2c(N[C@H](C)c3cccc(C(F)(F)F)c3C)nc(C)nc12` [SZ-022341], the IC50 worked out at 161 nM in experiment [1] and 7.76 nM in experiment [2].

Turning to `COc1c(=O)n(C2(C(F)(F)F)CC2)cc2c(N[C@H](C)c3cccc(C(F)F)c3F)nc(C)nc12` [SZ-022325], the IC50 is 216 nM in experiment [1] and 15.9 nM in experiment [2].

Regarding `COc1c(=O)n(C2(C)CC2)cc2c(N[C@H](C)c3cccc(C(C)(F)F)c3F)nc(C)nc12` [SZ-022356], the IC50 is 218 nM in experiment [1] and 4.36 nM in experiment [2].

As to `COc1c(=O)n(C2(CF)CC2)cc2c(N[C@H](C)c3cccc(C(F)F)c3F)nc(C)nc12` [SZ-022301], the IC50 worked out at 262 nM in experiment [1] and 6.5 nM in experiment [2].

Take `CCOc1c(=O)n(C2(C(F)F)CC2)cc2c(N[C@H](C)c3cccc(C(F)F)c3F)nc(C)nc12` [SZ-022296]: the IC50 stood at 143 nM in experiment [1] and 9.43 nM in experiment [2].

`[2H]C([2H])([2H])Oc1c(=O)n(C2(C(F)(F)F)CC2)cc2c(N[C@H](C)c3cccc(C(F)F)c3F)nc(C)nc12` [SZ-022354]: the values for the IC50 in experiment [1] and in experiment [2] were 138 nM and 21.8 nM, respectively.

Turning to `CCOc1c(=O)n(C2(C(F)(F)F)CC2)cc2c(N[C@H](C)c3cccc(C(C)(F)F)c3F)nc(C)nc12` [SZ-022360], the IC50 was 221 nM in experiment [1] and 9.46 nM in experiment [2].

Regarding `CCOc1c(=O)n(C2(C(F)(F)F)CC2)cc2c(N[C@H](C)c3cccc(C(F)F)c3F)nc(C)nc12` [SZ-022362], the concentration for half-maximal inhibition (IC50) in experiment [1] turned out to be 77 nM; in experiment [2], 12.4 nM.

As for `Cc1nc(N[C@H](C)c2cccc(C(F)F)c2F)c2cn(C3(C(F)F)CC3)c(=O)c(OCC3CC3)c2n1` [SZ-022314], the results for the IC50 in experiment [1] and in experiment [2] were 563 nM and 17.3 nM, respectively.

`COc1c(=O)n(C2(C(F)F)CC2)cc2c(N[C@H](C)c3cccc(C(F)(F)CO)c3F)nc(C)nc12` [SZ-022329]: the results for the IC50 in experiment [1] and in experiment [2] were 417 nM and 2.63 nM, respectively.

For `CCOc1c(=O)n(C2(C(F)F)CC2)cc2c(N[C@H](C)c3cccc(C(C)(F)F)c3F)nc(C)nc12` [SZ-022338], the 50% inhibitory concentration (IC50) is 334 nM in experiment [1] and 12.1 nM in experiment [2].

As for `COc1c(=O)n(C2(C(F)F)CC2)cc2c(N[C@H](C)c3cccc(C(F)(F)F)c3C)nc(C)nc12` [SZ-022304], the results for the IC50 in experiment [1] and in experiment [2] were 79 nM and 6.98 nM, respectively.

As for `COc1c(=O)n(C2(C(F)F)CC2)cc2c(N[C@H](C)c3cccc(C(F)(F)F)c3)nc(C)nc12` [SZ-022348], the IC50 in experiment [1] came to 614 nM; in experiment [2], 21.8 nM.

Take `[2H]C([2H])([2H])Oc1c(=O)n(C2(C(F)F)CC2)cc2c(N[C@H](C)c3cccc(C#N)c3C)nc(C)nc12` [SZ-022382]: the IC50 in experiment [1] turned out to be 729 nM; in experiment [2], 8.86 nM.

Regarding `COc1c(=O)n(C2(C(F)F)CC2)cc2c(N[C@H](C)c3cccc(C(C)(F)F)c3F)nc(C)nc12` [SZ-022303], the figures for the IC50 in experiment [1] and in experiment [2] were 128 nM and 9.77 nM, respectively.

Consider `COc1c(=O)n(C2(C(F)F)CC2)cc2c(N[C@H](C)c3cccc(C(F)(F)F)c3F)nc(C)nc12` [SZ-022349], for which the IC50 in experiment [1] came to 193 nM; in experiment [2] it was 7.23 nM.

For the compound `Cc1nc(N[C@H](C)c2cccc(C(F)F)c2F)c2cn(C3(C(F)F)CC3)c(=O)c(OCCO)c2n1` [SZ-022352], the IC50 in experiment [1] was found to be 516 nM; in experiment [2], 16 nM.

As to `CSc1c(=O)n(C2(C(F)F)CC2)cc2c(N[C@H](C)c3cccc(C(F)F)c3F)nc(C)nc12` [SZ-022306], the IC50 came to 213 nM in experiment [1] and 12.5 nM in experiment [2].

Regarding `COc1c(=O)n(C2(C(F)F)CC2)cc2c(N[C@H](C)c3cccc(C#N)c3C)nc(C)nc12` [SZ-022381], the IC50 in experiment [1] worked out at 741 nM; in experiment [2] it was 12.3 nM.

On to `Cc1nc(N[C@H](C)c2cccc(C(F)F)c2F)c2cn(C3(C(F)F)CC3)c(=O)c(OC3CC3)c2n1` [SZ-022299], for which the figures for the IC50 in experiment [1] and in experiment [2] were 751 nM and 22.4 nM, respectively.

Consider `CCOc1c(=O)n(C2(C(F)(F)F)CC2)cc2c(N[C@H](C)c3cccc(C(F)(F)F)c3C)nc(C)nc12` [SZ-022340], for which the results for the IC50 in experiment [1] and in experiment [2] were 367 nM and 15.2 nM, respectively.

On to `CCOc1c(=O)n(C2(C)CC2)cc2c(N[C@H](C)c3cccc(C(C)(F)F)c3F)nc(C)nc12` [SZ-022359], for which the IC50 was 231 nM in experiment [1] and 8.57 nM in experiment [2].

In the case of `Cc1nc(N[C@H](C)c2cccc(C(F)F)c2F)c2cn(C3(C(F)F)CC3)c(=O)c(S(C)(=O)=O)c2n1` [SZ-022307], the IC50 in experiment [1] stood at 253 nM; in experiment [2], 25.9 nM.

Regarding `COc1c(=O)n(C2(C(F)(F)F)CC2)cc2c(N[C@H](C)c3cccc(C#N)c3C)nc(C)nc12` [SZ-022383], the half-inhibitory concentration (IC50) in experiment [1] came to 985 nM; in experiment [2] it was 18.4 nM.

Regarding `CCOc1c(=O)n(C2(CF)CC2)cc2c(N[C@H](C)c3cccc(C(C)(F)F)c3F)nc(C)nc12` [SZ-022361], the IC50 in experiment [1] turned out to be 164 nM; in experiment [2], 4.62 nM.

As for `Cc1nc(N[C@H](C)c2cccc(C(F)F)c2F)c2cn(C3(C(F)F)CC3)c(=O)c(O[C@@H]3CCOC3)c2n1` [SZ-022353], the half-inhibitory concentration (IC50) in experiment [1] turned out to be 377 nM; in experiment [2] it was 17.5 nM.

As for `[2H]C([2H])([2H])Oc1c(=O)n(C2(C(F)F)CC2)cc2c(N[C@H](C)c3cccc(C(C)(F)F)c3F)nc(C)nc12` [SZ-022355], the IC50 in experiment [1] came out at 112 nM; in experiment [2], 2.47 nM.

In the case of `COc1c(=O)n(C23CC(C2)C3)cc2c(N[C@H](C)c3cccc(C(F)F)c3F)nc(C)nc12` [SZ-022345], the IC50 in experiment [1] came out at 885 nM; in experiment [2] it was 21.8 nM.

The record behind these values is patent US20240327401A1, “FUSED RING COMPOUND, PHARMACEUTICAL COMPOSITION, AND APPLICATION THEREOF” (EVOPOINT BIOSCIENCES CO., LTD., priority 2021, published 2024).
